Data taken from patent US10047050B2, “3,4-di-substituted pyridine compound, methods of using and compositions comprising the same” (ARDEA BIOSCIENCES, INC., priority 2011, dated 2018).
Several values for one entry are separate records, joined by “and”; a condition that tells them apart may be missing. Equal entries are not always repeated.

Tested on: serum uric acid
Assay: Single-dose Phase I clinical trial, serum uric acid (sUA) 0-72 hours post-dose
Assay type: in vivo, human
Settings: for Absolute sUA concentration, Mean (3-8) / % sUA reduction (from baseline), Mean (3-8) / % sUA change (from baseline), Mean (3-8): mean of subjects 3-8; for % sUA reduction (from baseline) / % sUA change (from baseline): individual subjects 3-8
Experimental: A Phase 1, Randomized, Double-Blind, Placebo-Controlled Study to Evaluate Safety, Tolerability, Pharmacokinetics and Preliminary Food Effect of Single Doses of a URAT1 Inhibitor, in Healthy Adult Male Volunteers.
To assess safety, tolerability, pharmacokinetics and uricosuric effects after oral administration as single doses of a tablet formulation and the effect of food on bioavailability.
Subjects receive a single, oral dose of active or placebo, at the following doses:
Group 4: 20 mg (fasted) [sentinel dosing];
48 subjects in 6 dose groups, 8 subjects/group, are randomized 3:1 to receive active (6/group) or placebo (2/group). All study procedures are the same regardless of whether subject receives active or placebo. The total duration of subject participation, including screening period, is ˜2-4 weeks, and the total volume of blood collected from each subject during the entire study <500 mL, (less than typically collected during a volunteer blood donation).
5 mg and 20 mg, active and placebo, tablets packaged in 35 count HDPE bottles, stored at controlled room temperature (15-30° C.). Placebo tablets are designed to match the active tablets—identical size, form, taste, and color, and containing the same excipients. 2 mg was dosed as an oral solution.
Subjects dosed on the morning of Day 1 with ˜240 mL of room temp water.
Fasted: subjects are dosed after overnight fast >10 hours and remain fasted until >4 hours post-dose.
Fed: subjects fast overnight for >10 hours, then are dosed 30 mins after completing standard moderate fat breakfast (no high fructose corn syrup).
Serum samples are collected at:
PD samples are frozen (−20° C.) and stored; all samples from a given subject assayed in a single analytical run.

[1] = Group 3, 5 mg single oral dose, fed, 54 h post-dose
[2] = Group 3, 5 mg single oral dose, fed, 60 h post-dose
[3] = Group 3, 5 mg single oral dose, fed, 72 h post-dose
[4] = Group 4, 20 mg single oral dose, fasted, 0 h (baseline)
[5] = Group 4, 20 mg single oral dose, fasted, 6 h post-dose
[6] = Group 4, 20 mg single oral dose, fasted, 12 h post-dose
[7] = Group 4, 20 mg single oral dose, fasted, 24 h post-dose
[8] = Group 4, 20 mg single oral dose, fasted, 30 h post-dose
[9] = Group 4, 20 mg single oral dose, fasted, 36 h post-dose
[10] = Group 4, 20 mg single oral dose, fasted, 48 h post-dose
[11] = Group 4, 20 mg single oral dose, fasted, 54 h post-dose
[12] = Group 4, 20 mg single oral dose, fasted, 60 h post-dose
[13] = Group 4, 20 mg single oral dose, fasted, 72 h post-dose
[14] = Group 5, 20 mg single oral dose, fed, 0 h (baseline)
[15] = Group 5, 20 mg single oral dose, fed, 6 h post-dose
[16] = Group 5, 20 mg single oral dose, fed, 12 h post-dose
[17] = Group 5, 20 mg single oral dose, fed, 24 h post-dose
[18] = Group 5, 20 mg single oral dose, fed, 30 h post-dose
[19] = Group 5, 20 mg single oral dose, fed, 36 h post-dose
[20] = Group 5, 20 mg single oral dose, fed, 48 h post-dose
[21] = Group 5, 20 mg single oral dose, fed, 54 h post-dose
[22] = Group 5, 20 mg single oral dose, fed, 60 h post-dose
[23] = Group 5, 20 mg single oral dose, fed, 72 h post-dose
[24] = Group 6, 40 mg single oral dose, fasted, 0 h (baseline)
[25] = Group 6, 40 mg single oral dose, fasted, 6 h post-dose
[26] = Group 6, 40 mg single oral dose, fasted, 12 h post-dose
[27] = Group 6, 40 mg single oral dose, fasted, 24 h post-dose
[28] = Group 6, 40 mg single oral dose, fasted, 30 h post-dose
[29] = Group 6, 40 mg single oral dose, fasted, 36 h post-dose
[30] = Group 6, 40 mg single oral dose, fasted, 48 h post-dose
[31] = Group 6, 40 mg single oral dose, fasted, 54 h post-dose
[32] = Group 6, 40 mg single oral dose, fasted, 60 h post-dose
[33] = Group 6, 40 mg single oral dose, fasted, 72 h post-dose

CC(C)(Sc1ccncc1-c1ccc(C#N)c2ccccc12)C(=O)O [2-((3-(4-cyanonaphthalen-1-yl)pyridin-4-yl)thio)-2-methylpropanoic acid]
Absolute sUA concentration, Mean (3-8) (Group 3, 5 mg single oral dose, fed, 48 h post-dose): 4.5 mg/dL
% sUA reduction (from baseline) [1]: −37.7% and −47.0% and −27.7% and −38.3% and −21.1% and −32.5%
% sUA reduction (from baseline), Mean (3-8) [1]: −34.1%
Absolute sUA concentration, Mean (3-8) [1]: 3.9 mg/dL
% sUA reduction (from baseline) [2]: −27.5% and −28.8% and −30.8% and −20.0% and −24.6% and −35.0%
% sUA reduction (from baseline), Mean (3-8) [2]: −27.8%
Absolute sUA concentration, Mean (3-8) [2]: 4.3 mg/dL
% sUA reduction (from baseline) [3]: −14.5% and −18.2% and −20.0% and −11.7% and −15.8% and −25.0%
% sUA reduction (from baseline), Mean (3-8) [3]: −17.5%
Absolute sUA concentration, Mean (3-8) [3]: 4.9 mg/dL
% sUA reduction (from baseline), Mean (3-8) [4]: 0%
Absolute sUA concentration, Mean (3-8) [4]: 6.8 mg/dL
% sUA reduction (from baseline), Mean (3-8) [5]: −37.1%
Absolute sUA concentration, Mean (3-8) [5]: 4.3 mg/dL
% sUA reduction (from baseline), Mean (3-8) [6]: −41.2%
Absolute sUA concentration, Mean (3-8) [6]: 4.0 mg/dL
% sUA reduction (from baseline), Mean (3-8) [7]: −43.1%
Absolute sUA concentration, Mean (3-8) [7]: 3.8 mg/dL
% sUA reduction (from baseline), Mean (3-8) [8]: −47.4%
Absolute sUA concentration, Mean (3-8) [8]: 3.6 mg/dL
% sUA reduction (from baseline), Mean (3-8) [9]: −48.4%
Absolute sUA concentration, Mean (3-8) [9]: 3.5 mg/dL
% sUA reduction (from baseline), Mean (3-8) [10]: −39.0%
Absolute sUA concentration, Mean (3-8) [10]: 4.1 mg/dL
% sUA reduction (from baseline), Mean (3-8) [11]: −37.6%
Absolute sUA concentration, Mean (3-8) [11]: 4.2 mg/dL
% sUA reduction (from baseline), Mean (3-8) [12]: −37.6%
Absolute sUA concentration, Mean (3-8) [12]: 4.2 mg/dL
% sUA reduction (from baseline), Mean (3-8) [13]: −21.5%
Absolute sUA concentration, Mean (3-8) [13]: 5.3 mg/dL
% sUA reduction (from baseline), Mean (3-8) [14]: 0%
Absolute sUA concentration, Mean (3-8) [14]: 7.1 mg/dL
% sUA reduction (from baseline), Mean (3-8) [15]: −44.6%
Absolute sUA concentration, Mean (3-8) [15]: 3.9 mg/dL
% sUA reduction (from baseline), Mean (3-8) [16]: −56.5%
Absolute sUA concentration, Mean (3-8) [16]: 3.1 mg/dL
% sUA reduction (from baseline), Mean (3-8) [17]: −46.1%
Absolute sUA concentration, Mean (3-8) [17]: 3.8 mg/dL
% sUA reduction (from baseline), Mean (3-8) [18]: −48%
Absolute sUA concentration, Mean (3-8) [18]: 3.7 mg/dL
% sUA reduction (from baseline), Mean (3-8) [19]: −49.9%
Absolute sUA concentration, Mean (3-8) [19]: 3.5 mg/dL
% sUA reduction (from baseline), Mean (3-8) [20]: −37.6%
Absolute sUA concentration, Mean (3-8) [20]: 4.4 mg/dL
% sUA reduction (from baseline), Mean (3-8) [21]: −38.8%
Absolute sUA concentration, Mean (3-8) [21]: 4.3 mg/dL
% sUA reduction (from baseline), Mean (3-8) [22]: −40.3%
Absolute sUA concentration, Mean (3-8) [22]: 4.2 mg/dL
% sUA reduction (from baseline), Mean (3-8) [23]: −28.6%
Absolute sUA concentration, Mean (3-8) [23]: 5.0 mg/dL
% sUA change (from baseline) [24]: 0%
% sUA change (from baseline), Mean (3-8) [24]: 0%
Absolute sUA concentration, Mean (3-8) [24]: 6.6 mg/dL
% sUA change (from baseline) [25]: −23.7% and −51.4% and −38.2% and −54.1% and −49.2% and −42.1%
% sUA change (from baseline), Mean (3-8) [25]: −43.1%
Absolute sUA concentration, Mean (3-8) [25]: 3.8 mg/dL
% sUA change (from baseline) [26]: −40.8% and −68.9% and −52.9% and −63.9%
% sUA change (from baseline), Mean (3-8) [26]: −59.3%
Absolute sUA concentration, Mean (3-8) [26]: 2.7 mg/dL
% sUA change (from baseline), Mean (3-8) [27]: −57.6%
Absolute sUA concentration, Mean (3-8) [27]: 2.8 mg/dL
% sUA change (from baseline), Mean (3-8) [28]: −60.6%
Absolute sUA concentration, Mean (3-8) [28]: 2.6 mg/dL
% sUA change (from baseline), Mean (3-8) [29]: −61.4%
Absolute sUA concentration, Mean (3-8) [29]: 2.5 mg/dL
% sUA change (from baseline) [30]: −53.9% and −50.0% and −48.5% and −37.7% and −55.9% and −45.6%
% sUA change (from baseline), Mean (3-8) [30]: −48.6%
Absolute sUA concentration, Mean (3-8) [30]: 3.4 mg/dL
% sUA change (from baseline) [31]: −56.6% and −47.3% and −50.0% and −39.3% and −54.2% and −40.4%
% sUA change (from baseline), Mean (3-8) [31]: −48.0%
Absolute sUA concentration, Mean (3-8) [31]: 3.4 mg/dL
% sUA change (from baseline) [32]: −56.6% and −50.0% and −48.5% and −39.3% and −52.5% and −36.8%
% sUA change (from baseline), Mean (3-8) [32]: −47.3%
Absolute sUA concentration, Mean (3-8) [32]: 3.4 mg/dL
% sUA change (from baseline) [33]: −40.8% and −31.1% and −33.8% and −19.7% and −30.5% and −19.3%
% sUA change (from baseline), Mean (3-8) [33]: −29.2%
Absolute sUA concentration, Mean (3-8) [33]: 4.6 mg/dL
